Data from patent US20260217983A1, “SULFONIUM SALT PHOTOINITIATORS AND METHODS OF LED CURING A COMPOSITION WITH SAID SULFONIUM SALT PHOTOINITIATORS” (ARKEMA FRANCE, priority 2022, published 2026).

Tests used:
[1] = Real time FT-IR curing performance in UViCure S105 at 365 and 385 nm; conditions: for Polymerization rate Rp/[M0]*100 / Final conversion: UViCure S105, 20 μm thickness, under air; for Final conversion: epoxide band; for cure speed compared with photoinitiators known from prior art such as Omnicat BL 550: LED lamp conditions, Example 2
Description: (§1) The curing performance of individual products prepared above was assessed using real time FT-IR measurement. The photoinitiators were dissolved in cycloaliphatic epoxy resin UViCure S105 (available from Sartomer) at the indicated wt % loading, applied onto the FT-IR measurement plate and irradiated with the indicated LED light source. The polymerization rate and final reactive group conversion were determined by monitoring the change of the relevant infrared band near 900 cm^−1 corresponding to an epoxide ring during irradiation. The molar extinction coefficients for the photoinitiator products (ε, expressed in M^−1 cm^−1) were determined in acetonitrile at 10^-3 M or 10^-5 M concentration.

[2] = Molar extinction coefficient in acetonitrile; type: physicochemical
Description: as §1

[3] = Real time FT-IR curing performance at 405 nm in UViCure S105/TMPTA (1:1); conditions: LED @405 nm (110 mW/cm^2), 20 μm thickness, laminated
Description: (§2) The curing performance of individual products prepared above was assessed using real time FT-IR measurement. The photoinitiators were dissolved either in neat trimethylolpropane triacrylate (TMPTA; available as SR351 from Sartomer) or in a 1:1 (w/w) mixture of TMPTA and UViCure S105 as indicated, applied onto the FT-IR measurement plate, laminated to prevent oxygen inhibition, and irradiated with the indicated LED light source. For the epoxy component, the polymerization rate and final reactive group conversion were determined by monitoring the change of the relevant infrared band near 900 cm^−1 corresponding to an epoxide ring. For the acrylate component, the C═C stretch band near 1625 cm^−1 was used.

[4] = Real time FT-IR curing performance at 405 nm in neat TMPTA; conditions: 20 μm thickness, laminated; for Acrylate Polymerization rate Rp/[M0]*100: LED @405 nm (110 W/cm^2); for Acrylate Final conversion: LED @405 nm (110 mW/cm^2)
Description: as §2

[5] = Colour index 'b' of formulations before and after polymerization; type: physicochemical; conditions: UViCure S105E, thin samples (20 μm), under air, 300 s irradiation
Description: The low yellowing characteristics can be measured by the Colour index ‘b’ value on cured films.
Formulations comprising the photoinitiators and neat UViCure S105E resin were prepared as described at example 2.

[6] = Belt curing performance (thumb-twist depth cure) in UViCure S105E resin; conditions: 24 μm film, under air, PI 2 wt %
Description: (§3) The photoinitiators were dissolved either in neat UViCure S105E resin or a hybrid acrylate/epoxy resin (prepared by mixing 60 wt parts UViCure S105E, 15 wt parts UViCure S130 and 25 wt parts SR492; all product are available from Sartomer). Formulations were prepared by combining all materials in the given proportions and then stirring at 30-40° C. until the samples were fully homogeneous; the formulations were then allowed to cool to room temperature. For all experiments, the formulations were cured on Leneta Form 3N-31 gloss finish paper at 6 μm and 24 μm film thickness using a belt-cure instrument; the films were prepared using a K-bar. All films were then cured under an LED lamp at a given belt speed. ‘Depth cure’ for each formulation was assessed using the ‘thumb-twist’ test (where no visible mark is made when a thumb is pressed down firmly onto the coating with a twisting motion), and from the belt speed; the calculated cure speed (in m/min) is given.

[7] = Belt curing performance (thumb-twist depth cure) in hybrid acrylate/epoxy resin; conditions: 24 μm film, under air, PI 2 wt %
Description: as §3

[8] = LED @365 nm (120 W/cm^2), PI loading 1 wt % (Omnicat BL 550 4 wt %; Speedcure 938/CPTX 1/0.5 wt %)
[9] = LED 365 nm, 100% intensity (=70.1 mJ/cm^2), belt speed 40 m/min

Structure (SMILES)	Polymerization rate Rp/[M0]*100 [1, 8] [s⁻¹]	Final conversion ([1]; LED @365 nm (120 W/cm^2)) [%]	Polymerization rate Rp/[M0]*100 ([1]; LED @385 nm (160 W/cm^2)) [s⁻¹]	Final conversion ([1]; LED @385 nm (160 W/cm^2)) [%]	ε at 365 nm [2] [M⁻¹ cm⁻¹]	ε at 385 nm [2] [M⁻¹ cm⁻¹]	also measured
COc1ccccc1-c1cc(-[s+]2c3ccccc3c(=O)c3cc(C(C)C)ccc32)ccc1OC (stereo not shown) [Photoinitiator 28, 10-(2′,6-dimethoxy[1,1′-biphenyl]-3-yl)-9-oxo-2-(propan-2-yl)-9H-thioxanthen-10-ium hexafluorophosphate]	2.29	34	5.78	36	426	268	
COc1ccc(-c2ccc(-[s+]3c4ccccc4c(=O)c4cc(C(C)C)ccc43)cc2)cc1 (stereo not shown) [Photoinitiator 26, 10-(4′-methoxy[1,1-biphenyl]-4-yl)-9-oxo-2-(propan-2-yl)-9H-thioxanthen-10-ium hexafluorophosphate]	4.94	26	3.08	28	3600	1622	cure speed compared with photoinitiators known from prior art such as Omnicat BL 550 [1]: higher cure speed
CC(C)c1ccc2c(c1)c(=O)c1ccccc1[s+]2-c1ccc(Oc2ccccc2)cc1 (stereo not shown) [Photoinitiator 12, 9-oxo-10-(4-phenoxyphenyl)-2-(propan-2-yl)-9H-thioxanthen-10-ium Hexafluorophosphate]	2.93	32	2.74	36	185	137	
CCCOc1ccc(Cl)c2c1[SH](c1ccc(Oc3ccccc3)cc1)c1ccccc1C2=O (stereo not shown) [Photoinitiator 16, 1-chloro-9-oxo-10-(4-phenoxyphenyl)-4-propoxy-9H-thioxanthen-10-ium hexafluorophosphate]	2.88	40	3.71	38	20030	6830	
CCCOc1ccc(Cl)c2c(=O)c3ccccc3[s+](-c3ccc(-c4ccc(OC)cc4)cc3)c12 (stereo not shown) [Photoinitiator 32, 1-chloro-10-(4′-methoxy[1,1′-biphenyl]-4-yl)-9-oxo-4-propoxy-9H-thioxanthen-10-ium Hexafluorophosphate]	3.73	28	4.86	33	4507	2055	cure speed compared with photoinitiators known from prior art such as Omnicat BL 550 [1]: higher cure speed
CCc1cc(CC)c2sc3ccc(-[s+]4c5ccccc5c(=O)c5cc(CC)cc(CC)c54)cc3c(=O)c2c1 (stereo not shown) [Photoinitiator 40, 10-(5,7-diethyl-9-oxo-9H-thioxanthen-2-yl)-2,4-diethyl-9-oxo-9H-thioxanthen-10-ium Hexafluorophosphate]	2.72	18	5.89	38	19117	15504	Acrylate Final conversion [3]: 83%; Acrylate Polymerization rate Rp/[M0]*100 [3]: 10.81 s⁻¹; Epoxy Final conversion [3]: 52%; Epoxy Polymerization rate Rp/[M0]*100 [3]: 6.46 s⁻¹; Acrylate Polymerization rate Rp/[M0]*100 [4]: 5.86 s⁻¹; Acrylate Final conversion [4]: 65%
COC(=O)COc1ccc2sc3ccc(-[s+]4c5ccccc5c(=O)c5cc(OCC(=O)OC)ccc54)cc3c(=O)c2c1 (stereo not shown) [Photoinitiator 6, 2-(2-methoxy-2-oxoethoxy)-10-[7-(2-methoxy-2-oxoethoxy)-9-oxo-9H-thioxanthen-2-yl]-9-oxo-9H-thioxanthen-10-ium Hexafluorophosphate]	0.72	35	2.01	36	18314	24656	
CCCOc1ccc(Cl)c2c(=O)c3cc([S+](c4ccc(C)cc4)c4ccc(C(=O)c5ccccc5)cc4)ccc3sc12 (stereo not shown) [Photoinitiator 3, (4-benzoylphenyl)(8-chloro-9-oxo-5-propoxy-9H-thioxanthen-2-yl)(4-methylphenyl)sulfonium hexafluorophosphate]	2.70	38	2.46	37	17066	17083	Colour index ‘b’ value After Polymerization ([5]; LED @365 nm (120 mW/cm^2)): 7.40; Colour index ‘b’ value Before Polymerization ([5]; LED @365 nm (120 mW/cm^2)): 11.28; Colour index ‘b’ value After Polymerization ([5]; LED @385 nm (160 mW/cm^2)): 7.48; Colour index ‘b’ value Before Polymerization ([5]; LED @385 nm (160 mW/cm^2)): 8.40; Cure speed in UViCure S105E resin [6, 9]: 4.8 m/min; Cure speed in UViCure S105E resin ([6]; LED 395 nm, 40 m/min, 100% intensity (=164.5 mJ/cm^2)): 8.7 m/min; Cure speed in hybrid acrylate/epoxy resin [7, 9]: 2.2 m/min; Cure speed in hybrid acrylate/epoxy resin ([7]; LED 395 nm, 80 m/min, 50% intensity (=36.9 mJ/cm^2)): no cure; Acrylate Final conversion [3]: 75%; Acrylate Polymerization rate Rp/[M0]*100 [3]: 5.69 s⁻¹; Epoxy Final conversion [3]: 35%; Epoxy Polymerization rate Rp/[M0]*100 [3]: 2.43 s⁻¹; Acrylate Polymerization rate Rp/[M0]*100 [4]: 5.88 s⁻¹; Acrylate Final conversion [4]: 45%
